{
  "source": "patent US20240139108A1",
  "about": "“ORAL PHARMACEUTICAL COMPOSITION OF ARSENIC TRIOXIDE” (INTAS PHARMACEUTICALS LTD., priority 2021, published 2024)",
  "origin": "cited, not measured here",
  "key": {"[1]": {"details": "orally administered versus same amount administered intravenously"}},
  "data": [
    {"substance": "Diarsenic trioxide", "values": [
      {"measurement": "solubility in water", "result": "low solubility in water"},
      {"measurement": "peak plasma concentration", "setting": "[1]", "result": "lower peak plasma concentration"},
      {"measurement": "prolongation of the QT interval and ventricular tachycardia", "setting": "[1]", "result": "less prolongation of the QT interval and ventricular tachycardia"}
    ]}
  ]
}
